Data: patent US9493420B2, “Quinoline derivatives and uses thereof” (Portland State University, priority 2005, dated 2016)

Assays:
P. chabaudi parasites = assay: 4-day suppressive test in infected mice; format: in vivo; conditions: 64 mg/kg oral gavage once per day for four days; male CF-1 mice; by day 4
Text: Antimalarial compounds can also be tested for efficacy in vivo. One non-limiting exemplary method for performing such testing is the 4-day suppressive test (Peters, Ann. Trop. Med. Parasitol., 69(2):155-171, 1975). Briefly, such test involves collecting P. chabaudi (Mackinnon and Read, Philos. Trans. R. Soc. Lond. B Biol. Sci., 359:965-986, 2004; Mackinnon et al., Exp. Parasitol., 101 (2-3):121-128, 2002) from a donor animal harboring ˜20% parasitemia. Male CF-1 mice at 4-5 weeks of age (˜20 g) are infected with ˜10^7 infected red blood cells via 100 μL tail vein injection and randomly sorted into groups of 4 mice each on day 0. One hour after infection, the mice receive the test agent via oral gavage, or by the intraperitoneal route (at approximately 1-10 times the in vitro IC50 values). Drugs are administered once daily for at least 4 days beginning at day 0. […] Efficacy of a tested compound in this bioassay is measured by inhibition of parasite growth as defined previously. […]
A variation of the 4-day suppressive test described by Peters (Ann. Trop. Med. Parasitol., 69(2):155-171, 1975) was used to test the in vivo effectiveness of RCQ_02 as a treatment for Plasmodium sp. infection. Briefly, P. chabaudi parasites (Mackinnon and Read, Philos. Trans. R. Soc. Lond. B Biol. Sci., 359:965-986, 2004) were collected from a donor animal harboring approximately 20% parasitemia. […]

[1] = biological target: T1, recombinant human dopamine (HEK-hDAT) transporter (Homo sapiens, UniProt Q01959); assay: Inhibition of [3H]neurotransmitter uptake, hDAT; format: cell-based
T1 construct: expressed in transfected cells; host or cells: HEK cells expressing hDAT (HEK-hDAT)
Procedure: Selected RCQs were tested for inhibition of [^3H]neurotransmitter uptake by the recombinant human serotonin (hSERT), dopamine (HEK-hDAT), and norepinephrine (hNET) transporters by a modification of the method of Eshleman et al. (J. Pharmacol. Exp. Ther., 289(2):877-885, 1999). HEK-hDAT, hSERT, and -hNET expressing cells were grown on tissue culture dishes. After removing the medium and washing the plates with Ca^2+-, Mg^2+-free phosphate buffered saline (PBS), fresh medium was added and the plates were placed in a 25° C. water bath for 5 minutes. Cells were gently lifted from the plates and cell clusters separated by trituration. 50 μL aliquots of the suspended cells were added to assay tubes containing drugs and Krebs-HEPES assay buffer in a final volume of 0.5 mL.
Competition experiments were conducted in triplicate. After a 10 minute preincubation period at 25° C., [^3H]neurotransmitter (20 nM final concentration; [^3H]DA, [^3H]5-HT, or [^3H]NE) were added, and the mixtures incubated for 10 minutes. Reactions were terminated by filtration through Wallac filtermat A filters (presoaked in 0.05% polyethylenimine), using a Tomtec cell harvester. Scintillation fluid was added to each filtered spot, and radioactivity remaining on the filters determined using a Wallac 1205 Betaplate scintillation counter.
Specific uptake was defined as the difference in uptake observed in the absence and presence of 5 μM mazindol (hDAT and hNET) or 5 μM imipramine (hSERT). Inhibition of uptake was determined by non-linear regression using Prism software.

T1 sequence (Q01959 whole entry): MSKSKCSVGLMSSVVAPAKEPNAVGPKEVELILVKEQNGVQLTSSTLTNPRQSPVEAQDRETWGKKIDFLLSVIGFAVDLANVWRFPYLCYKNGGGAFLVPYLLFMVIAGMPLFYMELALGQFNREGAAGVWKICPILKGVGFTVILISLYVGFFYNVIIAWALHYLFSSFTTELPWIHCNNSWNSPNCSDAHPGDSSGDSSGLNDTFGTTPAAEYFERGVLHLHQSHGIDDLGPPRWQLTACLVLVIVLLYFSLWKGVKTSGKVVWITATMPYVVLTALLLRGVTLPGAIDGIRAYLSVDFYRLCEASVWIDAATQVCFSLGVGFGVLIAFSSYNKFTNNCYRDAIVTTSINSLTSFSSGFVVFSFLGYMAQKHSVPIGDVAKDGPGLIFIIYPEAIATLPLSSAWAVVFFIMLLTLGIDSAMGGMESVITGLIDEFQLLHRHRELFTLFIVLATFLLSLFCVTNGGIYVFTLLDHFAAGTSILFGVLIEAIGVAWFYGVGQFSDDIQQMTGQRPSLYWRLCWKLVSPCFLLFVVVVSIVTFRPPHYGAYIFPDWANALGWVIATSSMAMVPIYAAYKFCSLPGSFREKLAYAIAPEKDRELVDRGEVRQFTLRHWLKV

IC50 [1]: 2200 nM
Compound: CN(CCCNc1ccnc2cc(Cl)ccc12)CCCN1c2ccccc2CCc2ccccc21 [RCQ_02, N′-(7-Chloro-quinolin-4-yl)-N-[3-(10,11-dihydro-dibenzo[b,f]azepin-5-yl)-propyl]-N-methyl-propane-1,3-diamine]
cleared of parasites (P. chabaudi parasites): > 99%
